# Source: US9149038B2, “4-amino-6-(heterocyclic)picolinates and 6-amino-2-(heterocyclic)pyrimidine-4-carboxylates and their use as herbicides” (Dow AgroSciences LLC, priority 2013, dated 2015)
# Like-named read-outs stand apart in the source and are kept apart here.
# Assays:
# [1] = test system: Key Grass and Sedge Weeds as well as Grass Crops; experiment: Post-Emergent Test II: postemergent herbicidal activity, visual rating after 14 d (Table 8); assay type: in vivo; details: post-emergence, 336 h; for pest or weed control at 35 g/ha: 35 g ai/ha; for pest or weed control at 70 g/ha: 70 g ai/ha; for pest or weed control at 140 g/ha: 140 g ai/ha
# In short: (§1)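 Visual scoring at 14 d, 0 (no injury) to 100 (complete kill), relative to untreated plants. Postemergent overhead track-sprayer application, 187 L/ha, at a top rate plus serial ½×–1/16× rates, to plants grown 7–21 d at about 23–29° C day under a 15 h photoperiod, then subirrigated.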
# [2] = test system: Key Broadleaf Weed and Crop Species; experiment: Post-Emergent Test II: postemergent herbicidal activity, visual rating after 14 d (Table 7); assay type: in vivo; details: post-emergence, 336 h; for pest or weed control at 35 g/ha: 35 g ai/ha; for pest or weed control at 70 g/ha: 70 g ai/ha; for pest or weed control at 140 g/ha: 140 g ai/ha
# In short: as §1
# [3] = barnyardgrass (Echinochloa crus-galli), read-out: Visual Growth Reduction (%) 14 Days After Application ECHCG
# [4] = giant foxtail (Setaria faberi), read-out: Visual Growth Reduction (%) 14 Days After Application SETFA
# [5] = maize, corn (Zea mays), read-out: Visual Growth Reduction (%) 14 Days After Application ZEAMX
# [6] = rice (Oryza sativa), read-out: Visual Growth Reduction (%) 14 Days After Application ORYSA
# [7] = wheat, spring (Triticum aestivum), read-out: Visual Growth Reduction (%) 14 Days After Application TRZAS
# [8] = yellow nutsedge (Cyperus esculentus), read-out: Visual Growth Reduction (%) 14 Days After Application CYPES
# [9] = lambsquarters (Chenopodium album), read-out: Visual Growth Reduction (%) 14 Days After Application CHEAL
# [10] = oilseed rape, canola (Brassica napus), read-out: Visual Growth Reduction (%) 14 Days After Application BRSNN
# [11] = redroot pigweed (Amaranthus retroflexus), read-out: Visual Growth Reduction (%) 14 Days After Application AMARE
# [12] = sunflower (Helianthus annuus), read-out: Visual Growth Reduction (%) 14 Days After Application HELAN
# [13] = velvetleaf (Abutilon theophrasti), read-out: Visual Growth Reduction (%) 14 Days After Application ABUTH
# [14] = wild poinsettia (Euphorbia heterophylla), read-out: Visual Growth Reduction (%) 14 Days After Application EPHHL
smiles,measurement,setting,value
COC(=O)c1nc(-c2cc3c(cc2Cl)OC(F)(F)O3)c(F)c(N)c1Cl [Compound 12],pest or weed control at 35 g/ha,[1]; [3],0 to 29%
same,pest or weed control at 70 g/ha,[1]; [3],0 to 29%
same,pest or weed control at 140 g/ha,[1]; [3],0 to 29%
same,pest or weed control at 35 g/ha,[1]; [4],0 to 29%
same,pest or weed control at 70 g/ha,[1]; [4],0 to 29%
same,pest or weed control at 140 g/ha,[1]; [4],0 to 29%
same,pest or weed control at 35 g/ha,[1]; [5],0 to 29%
same,pest or weed control at 70 g/ha,[1]; [5],0 to 29%
same,pest or weed control at 140 g/ha,[1]; [5],0 to 29%
same,pest or weed control at 35 g/ha,[1]; [6],0 to 29%
same,pest or weed control at 70 g/ha,[1]; [6],0 to 29%
same,pest or weed control at 140 g/ha,[1]; [6],0 to 29%
same,pest or weed control at 35 g/ha,[1]; [7],0 to 29%
same,pest or weed control at 70 g/ha,[1]; [7],0 to 29%
same,pest or weed control at 140 g/ha,[1]; [7],0 to 29%
same,pest or weed control at 35 g/ha,[1]; [8],0 to 29%
same,pest or weed control at 70 g/ha,[1]; [8],0 to 29%
same,pest or weed control at 140 g/ha,[1]; [8],0 to 29%
same,pest or weed control at 35 g/ha,[2]; [9],0 to 29%
same,pest or weed control at 70 g/ha,[2]; [9],0 to 29%
same,pest or weed control at 140 g/ha,[2]; [9],0 to 29%
same,pest or weed control at 35 g/ha,[2]; [10],0 to 29%
same,pest or weed control at 70 g/ha,[2]; [10],0 to 29%
same,pest or weed control at 140 g/ha,[2]; [10],0 to 29%
same,pest or weed control at 35 g/ha,[2]; [11],0 to 29%
same,pest or weed control at 70 g/ha,[2]; [11],0 to 29%
same,pest or weed control at 140 g/ha,[2]; [11],0 to 29%
same,pest or weed control at 35 g/ha,[2]; [12],0 to 29%
same,pest or weed control at 70 g/ha,[2]; [12],0 to 29%
same,pest or weed control at 140 g/ha,[2]; [12],0 to 29%
same,pest or weed control at 35 g/ha,[2]; [13],0 to 29%
same,pest or weed control at 70 g/ha,[2]; [13],0 to 29%
same,pest or weed control at 140 g/ha,[2]; [13],60 to 74%
same,pest or weed control at 35 g/ha,[2]; [14],0 to 29%
same,pest or weed control at 70 g/ha,[2]; [14],0 to 29%
same,pest or weed control at 140 g/ha,[2]; [14],0 to 29%
Nc1c(F)c(-c2ccc3c(c2F)OC(F)(F)O3)nc(C(=O)O)c1Cl [Compound 11],pest or weed control at 35 g/ha,[1]; [3],85 to 94%
same,pest or weed control at 70 g/ha,[1]; [3],95 to 100%
same,pest or weed control at 140 g/ha,[1]; [3],95 to 100%
same,pest or weed control at 35 g/ha,[1]; [4],75 to 84%
same,pest or weed control at 70 g/ha,[1]; [4],85 to 94%
same,pest or weed control at 140 g/ha,[1]; [4],95 to 100%
same,pest or weed control at 35 g/ha,[1]; [5],60 to 74%
same,pest or weed control at 70 g/ha,[1]; [5],60 to 74%
same,pest or weed control at 140 g/ha,[1]; [5],75 to 84%
same,pest or weed control at 35 g/ha,[1]; [6],0 to 29%
same,pest or weed control at 70 g/ha,[1]; [6],0 to 29%
same,pest or weed control at 140 g/ha,[1]; [6],30 to 44%
same,pest or weed control at 35 g/ha,[1]; [7],60 to 74%
same,pest or weed control at 70 g/ha,[1]; [7],60 to 74%
same,pest or weed control at 140 g/ha,[1]; [7],75 to 84%
same,pest or weed control at 35 g/ha,[1]; [8],0 to 29%
same,pest or weed control at 70 g/ha,[1]; [8],95 to 100%
same,pest or weed control at 140 g/ha,[1]; [8],95 to 100%
same,pest or weed control at 35 g/ha,[2]; [9],95 to 100%
same,pest or weed control at 70 g/ha,[2]; [9],95 to 100%
same,pest or weed control at 140 g/ha,[2]; [9],95 to 100%
same,pest or weed control at 35 g/ha,[2]; [10],85 to 94%
same,pest or weed control at 70 g/ha,[2]; [10],85 to 94%
same,pest or weed control at 140 g/ha,[2]; [10],85 to 94%
same,pest or weed control at 35 g/ha,[2]; [12],95 to 100%
same,pest or weed control at 70 g/ha,[2]; [12],95 to 100%
same,pest or weed control at 140 g/ha,[2]; [12],95 to 100%
same,pest or weed control at 35 g/ha,[2]; [13],85 to 94%
same,pest or weed control at 70 g/ha,[2]; [13],85 to 94%
same,pest or weed control at 140 g/ha,[2]; [13],95 to 100%
same,pest or weed control at 35 g/ha,[2]; [14],95 to 100%
same,pest or weed control at 70 g/ha,[2]; [14],95 to 100%
same,pest or weed control at 140 g/ha,[2]; [14],95 to 100%
COC(=O)c1nc(-c2ccc3c(c2)OC(F)(F)O3)nc(N)c1Cl [Compound 60],pest or weed control at 35 g/ha,[1]; [3],60 to 74%
same,pest or weed control at 70 g/ha,[1]; [3],75 to 84%
same,pest or weed control at 140 g/ha,[1]; [3],85 to 94%
same,pest or weed control at 35 g/ha,[1]; [4],30 to 44%
same,pest or weed control at 70 g/ha,[1]; [4],60 to 74%
same,pest or weed control at 140 g/ha,[1]; [4],75 to 84%
same,pest or weed control at 35 g/ha,[1]; [5],60 to 74%
same,pest or weed control at 70 g/ha,[1]; [5],75 to 84%
same,pest or weed control at 140 g/ha,[1]; [5],85 to 94%
same,pest or weed control at 35 g/ha,[1]; [6],0 to 29%
same,pest or weed control at 70 g/ha,[1]; [6],0 to 29%
same,pest or weed control at 140 g/ha,[1]; [6],0 to 29%
same,pest or weed control at 35 g/ha,[1]; [7],45 to 59%
same,pest or weed control at 70 g/ha,[1]; [7],60 to 74%
same,pest or weed control at 140 g/ha,[1]; [7],60 to 74%
same,pest or weed control at 35 g/ha,[1]; [8],75 to 84%
same,pest or weed control at 70 g/ha,[1]; [8],85 to 94%
same,pest or weed control at 140 g/ha,[1]; [8],85 to 94%
same,pest or weed control at 35 g/ha,[2]; [9],60 to 74%
same,pest or weed control at 70 g/ha,[2]; [9],75 to 84%
same,pest or weed control at 140 g/ha,[2]; [9],85 to 94%
same,pest or weed control at 35 g/ha,[2]; [10],45 to 59%
same,pest or weed control at 70 g/ha,[2]; [10],60 to 74%
same,pest or weed control at 140 g/ha,[2]; [10],60 to 74%
same,pest or weed control at 35 g/ha,[2]; [11],0 to 29%
same,pest or weed control at 70 g/ha,[2]; [11],30 to 44%
same,pest or weed control at 140 g/ha,[2]; [11],45 to 59%
same,pest or weed control at 35 g/ha,[2]; [12],75 to 84%
same,pest or weed control at 70 g/ha,[2]; [12],75 to 84%
same,pest or weed control at 140 g/ha,[2]; [12],75 to 84%
same,pest or weed control at 35 g/ha,[2]; [13],30 to 44%
same,pest or weed control at 70 g/ha,[2]; [13],60 to 74%
same,pest or weed control at 140 g/ha,[2]; [13],75 to 84%
same,pest or weed control at 35 g/ha,[2]; [14],75 to 84%
same,pest or weed control at 70 g/ha,[2]; [14],75 to 84%
same,pest or weed control at 140 g/ha,[2]; [14],85 to 94%
